Series [1] concerns SARS-2. As to the kind of experiment: microbe, parasite or virus in culture. In kind it is cell-based. The settings on record: Severe acute respiratory syndrome coronavirus 2, read-out: SARS-2 VU-EC50 (μM) (A549-hACE2).
Series [2] relates to USA_WA1/2020 SARS CoV-2. As to the kind of experiment: microbe, parasite or virus in culture. In kind it is cell-based. The settings on record: Severe acute respiratory syndrome coronavirus 2, Vero C1008, 72 h, read-out: SARS-2 EC50 (μM) VeroE6.
The subject of series [3] is Toronto 2 SARS CoV-1. The experiment in a line: organism not typed. The settings on record: Vero C1008, 72 h, read-out: SARS-1 EC50 (μM) VeroE6. In kind it is cell-based.
The test system of series [4] is SARS-2.
Series [5] is described as follows: in vitro. The settings on record: African green monkey.

Broadly, the EC50 is the concentration giving half of the maximal effect. On to `O=C1CCc2cc(C(=O)Nc3cccc(C#Cc4ccccn4)c3)ccc2N1` [Compound 1, 2-Oxo-N-(3-(pyridin-2-ylethynyl)phenyl)-1,2,3,4-tetrahydroquinoline-6-carboxamide], for which the values for the EC50 in series [1], in series [2] and in series [3] were 7.32 µM, 5.81 ± 2.51 µM and 5.07 ± 2.89 µM, respectively. Also, the “SARS-2 VU-VTR @ 20 μM (A549-hACE2) (logs)” value in series [4] is 1.95 logs. Besides, the CC50 in series [5] was > 30000 nM.

As for `CN1C(=O)CCc2cc(C(=O)Nc3cccc(C#Cc4ccccn4)c3)ccc21` [Compound 2, 1-Methyl-2-oxo-N-(3-(pyridin-2-ylethynyl)phenyl)-1,2,3,4-tetrahydroquinoline-6-carboxamide], the EC50 in series [1] amounted to 3.59 µM; in series [2], 2.55 µM; in series [3], 1.46 µM. For the same compound, the “SARS-2 VU-VTR @ 20 μM (A549-hACE2) (logs)” value in series [4] is given as 3.32 logs. For the same compound, the CC50 in series [5] is > 30000 nM.

As for `O=C1CCCc2cc(C(=O)Nc3cccc(C#Cc4ccccn4)c3)ccc2N1` [Compound 4, 2-Oxo-N-(3-(pyridin-2-ylethynyl)phenyl)-2,3,4,5-tetrahydro-1H-benzo[b]azepine-7-carboxamide], the EC50 in series [1] is 1.5 µM; in series [2], 1.5 µM; in series [3] it was 1.39 µM. Moreover, the “SARS-2 VU-VTR @ 20 μM (A549-hACE2) (logs)” value in series [4] came out at 2.55 logs. Also, the CC50 in series [5] amounted to 22900 nM.

For `CC(=O)Nc1ccc(C(=O)Nc2cccc(C#Cc3ccccn3)c2)cc1` [Compound 5, 4-Acetamido-N-(3-(pyridin-2-ylethynyl)phenyl)benzamide], the EC50 was 3.58 µM in series [1], 3.89 µM in series [2] and 2.14 µM in series [3]. Besides, the “SARS-2 VU-VTR @ 20 μM (A549-hACE2) (logs)” value in series [4] is given as 2.05 logs. Further, in series [5], the CC50 was > 30000 nM.

For `O=C(Nc1cccc(C#Cc2ccccn2)c1)c1ccc(NC(=O)C2CC2)cc1` [Compound 8, 4-(Cyclopropanecarboxamido)-N-(3-(pyridin-2-ylethynyl)phenyl)benzamide], the EC50 in series [1] is 1.07 µM; in series [2], 0.94 µM; in series [3], 0.47 µM. Also, in series [4], the “SARS-2 VU-VTR @ 20 μM (A549-hACE2) (logs)” value turned out to be 1.53 logs. Further, the CC50 in series [5] was > 30000 nM.

Consider `O=C(Nc1cccc(C#Cc2ccccn2)c1)c1ccc(NC(=O)C2CCC2)cc1` [Compound 9, 4-(Cyclobutanecarboxamido)-N-(3-(pyridin-2-ylethynyl)phenyl)benzamide], for which the EC50 worked out at 0.69 µM in series [1], 0.26 µM in series [2] and 0.21 µM in series [3]. In addition, the “SARS-2 VU-VTR @ 20 μM (A549-hACE2) (logs)” value in series [4] is recorded as 1.88 logs. For the same compound, the CC50 in series [5] is > 30000 nM.

Regarding `O=C(Nc1cccc(C#Cc2ccccn2)c1)c1ccc(N2CCNC2=O)cc1` [Compound 14, 4-(2-Oxoimidazolidin-1-yl)-N-(3-(pyridin-2-ylethynyl)phenyl)benzamide], the figures for the EC50 in series [1], in series [2] and in series [3] were 2.31 µM, 1.06 µM and 1.05 µM, respectively. The “SARS-2 VU-VTR @ 20 μM (A549-hACE2) (logs)” value in series [4] was 1.84 logs. In series [5], the CC50 was > 30000 nM.

Take `CC(C)N1CCN(c2ccc(C(=O)Nc3cccc(C#Cc4ccccn4)c3)cc2)C1=O` [Compound 17, 4-(3-Isopropyl-2-oxoimidazolidin-1-yl)-N-(3-(pyridin-2-ylethynyl)phenyl)benzamide]: the EC50 in series [1] turned out to be 0.43 µM; in series [2], 0.61 µM; in series [3], 2.37 µM. In series [4], the “SARS-2 VU-VTR @ 20 μM (A549-hACE2) (logs)” value turned out to be 2.12 logs. In series [5], the CC50 was > 30000 nM.

Turning to `COc1cc(C#Cc2ccccn2)cc(NC(=O)c2ccc3c(c2)CCCC(=O)N3)c1` [Compound 51, N-(3-Methoxy-5-(pyridin-2-ylethynyl)phenyl)-2-oxo-2,3,4,5-tetrahydro-1H-benzo[b]azepine-7-carboxamide], the EC50 in series [2] came out at 0.52 µM; in series [3], 0.51 µM. This compound also yielded a CC50 in series [5] of 12200 nM.

On to `Nc1cc(C#Cc2ccccn2)cc(NC(=O)c2ccc(N3CCCCC3=O)cc2)c1` [Compound 52, N-(3-Amino-5-(pyridin-2-ylethynyl)phenyl)-4-(2-oxopiperidin-1-yl)benzamide], for which the EC50 in series [2] and in series [3] was 26 µM each time. Moreover, in series [5], the CC50 was > 30000 nM.

For the compound `O=C(Nc1cc(C#Cc2ccccn2)cc(OCC2CC2)c1)c1ccc(N2CCCCC2=O)cc1` [Compound 53, N-(3-(Cyclopropylmethoxy)-5-(pyridin-2-ylethynyl)phenyl)-4-(2-oxopiperidin-1-yl)benzamide], the EC50 in series [2] was determined as 0.18 µM; in series [3], 0.062 µM. Besides, in series [5], the CC50 was > 30000 nM.

For `CC(=O)Nc1ccc(NC(=O)c2cccc(C#Cc3ccccn3)c2)cc1` [Compound 55, N-(4-acetamidophenyl)-3-(pyridin-2-ylethynyl)benzamide], the figures for the EC50 in series [2] and in series [3] were 4.18 µM and 2.82 µM, respectively. In addition, the CC50 in series [5] was > 30000 nM.

For the compound `CCN(C(C)=O)c1ccc(NC(=O)c2cccc(C#Cc3ccccn3)c2)cc1` [Compound 56, N-(4-(N-ethylacetamido)phenyl)-3-(pyridin-2-ylethynyl)benzamide], the EC50 in series [2] was 1.58 µM; in series [3], 1.11 µM. Besides, the CC50 in series [5] is > 30000 nM.

In the case of `O=C(Nc1ccc(N2CCC2=O)cc1)c1cccc(C#Cc2ccccn2)c1` [Compound 57, N-(4-(2-oxoazetidin-1-yl)phenyl)-3-(pyridin-2-ylethynyl)benzamide], the EC50 in series [2] came to 4.01 µM; in series [3], 1.74 µM. In addition, in series [5], the CC50 is > 30000 nM.

For the compound `O=C(Nc1ccc(NC(=O)N2CCC2)cc1)c1cccc(C#Cc2ccccn2)c1` [Compound 60, N-(4-(3-(pyridin-2-ylethynyl)benzamido)phenyl)azetidine-1-carboxamide], the EC50 in series [2] came out at 7.75 µM; in series [3], 3.93 µM. Further, the CC50 in series [5] is > 30000 nM.

Take `CC1(NC(=O)c2ccc(NC(=O)c3cccc(C#Cc4ccccn4)c3)cc2)CC1` [Compound 61, N-(4-((1-methylcyclopropyl)carbamoyl)phenyl)-3-(pyridin-2-ylethynyl)benzamide]: the EC50 in series [2] is 0.71 µM; in series [3] it was > 30 µM. Further, in series [5], the CC50 is > 30000 nM.

In the case of `O=C(Nc1ccc(C(=O)NC2CCCC2)cc1)c1cccc(C#Cc2ccccn2)c1` [Compound 62, N-(4-(cyclopentylcarbamoyl)phenyl)-3-(pyridin-2-ylethynyl)benzamide], the EC50 is 0.48 µM in series [2] and > 30 µM in series [3]. Besides, the CC50 in series [5] is > 30000 nM.

As for `COC(=O)c1ccc(NC(=O)c2cccc(C#Cc3ccccn3)c2)cc1` [Compound 63, Methyl 4-(3-(pyridin-2-ylethynyl)benzamido)benzoate], the results for the EC50 in series [2] and in series [3] were 0.55 µM and 0.43 µM, respectively. The CC50 in series [5] was > 30000 nM.

For the compound `COC(=O)c1cccc(NC(=O)c2cccc(C#Cc3ccccn3)c2)c1` [Compound 64, Methyl 3-(3-(pyridin-2-ylethynyl)benzamido)benzoate], the EC50 in series [2] is > 30 µM; in series [3], 4.19 µM. For the same compound, in series [5], the CC50 was 21700 nM.

Consider `CC(C)(C)c1ccc(NC(=O)c2cccc(C#Cc3ccccn3)c2)cc1` [Compound 67, N-(4-(tert-butyl)phenyl)-3-(pyridin-2-ylethynyl)benzamide], for which the EC50 stood at 4.25 µM in series [2] and 3.51 µM in series [3]. The CC50 in series [5] is > 30000 nM.

With `O=C(Nc1ccc(C(O)(C(F)(F)F)C(F)(F)F)cc1)c1cccc(C#Cc2ccccn2)c1` [Compound 68, N-(4-(1,1,1,3,3,3-hexafluoro-2-hydroxypropan-2-yl)phenyl)-3-(pyridin-2-ylethynyl)benzamide], the EC50 is 27.7 µM in series [2] and 0.52 µM in series [3]. In addition, the CC50 in series [5] was found to be 9720 nM.

Consider `CC(=O)Nc1ccc(NC(=O)c2cccc(C#Cc3ccccn3)c2)cn1` [Compound 71, N-(6-acetamidopyridin-3-yl)-3-(pyridin-2-ylethynyl)benzamide], for which the values for the EC50 in series [2] and in series [3] were 4.13 µM and 3.98 µM, respectively. Besides, the CC50 in series [5] is > 30000 nM.

As for `COc1cc(C#Cc2ccccn2)cc(C(=O)Nc2ccc(N3CCCCC3=O)cc2)c1` [Compound 72, 3-methoxy-N-(4-(2-oxopiperidin-1-yl)phenyl)-5-(pyridin-2-ylethynyl)benzamide], the EC50 in series [2] turned out to be 0.51 µM; in series [3], 0.24 µM. Besides, in series [5], the CC50 came to 26600 nM.

On to `O=C(Nc1ccc(N2CCCS2(=O)=O)cc1)c1cccc(C#Cc2ccccn2)c1` [Compound 74, N-(4-(1,1-dioxidoisothiazolidin-2-yl)phenyl)-3-(pyridin-2-ylethynyl)benzamide], for which the EC50 in series [2] is > 30 µM; in series [3] it was 0.91 µM. The CC50 in series [5] is > 30000 nM.

For the compound `COc1cc(C#Cc2ccccn2)cc(C(=O)Nc2ccc(N3CCCCS3(=O)=O)cc2)c1` [Compound 75, N-(4-(1,1-dioxido-1,2-thiazinan-2-yl)phenyl)-3-methoxy-5-(pyridin-2-ylethynyl)benzamide], the results for the EC50 in series [2] and in series [3] were 0.128 µM and 0.065 µM, respectively. Moreover, in series [5], the CC50 is > 30000 nM.

For `COc1cc(C#Cc2ccccn2)cc(NC(=O)c2ccc(N3CCCCS3(=O)=O)cc2)c1` [Compound 76], the values for the EC50 in series [2] and in series [3] were 0.189 µM and 0.172 µM, respectively. Besides, the CC50 in series [5] was > 30000 nM.

Consider `O=C(Nc1cccc(C#Cc2ccccn2)c1)c1ccc(N2CCCCS2(=O)=O)cc1` [Compound 77], for which the EC50 in series [2] turned out to be 0.957 µM; in series [3], 0.791 µM. In addition, the CC50 in series [5] was > 30000 nM.

`N#Cc1cc(C#Cc2ccccn2)cc(NC(=O)c2ccc(N3CCCCC3=O)cc2)c1` [Compound 78]: the EC50 is 1.97 µM in series [2] and 1.54 µM in series [3]. In addition, the CC50 in series [5] is > 30000 nM.

As for `COc1cc(C#Cc2ccccn2)cc(C(=O)Nc2ccc(CC3CC(=O)NC3=O)cc2)c1` (stereo not shown) [Compound 79], the EC50 was found to be 8.19 µM in series [2] and 4.45 µM in series [3]. Moreover, in series [5], the CC50 is > 30000 nM.

The values are drawn from patent US11905306B2 (priority 2021, dated 2024).
